Patent US12187688B2, “Crystal form of tetramethylpyrazine nitrone, preparation method and use thereof” (GUANGZHOU MAGPIE PHARMACEUTICALS CO., LTD., priority 2019, dated 2025)
Where “and” joins values, the source holds several entries; their conditions need not be identical. Equal entries are not always repeated. Where two headings read alike, the source gives them in different places.

Key:
[1] = in vitro cell experiments (effective protection concentration); type: cell-based
[2] = distribution in tissues after intravenous administration to SD rats; type: in vivo; settings: 30 mg/kg i.v.
Description: SD rats were given the crystal form A of TBN at a dose of 30 mg/kg by intravenous injection and the distribution of the crystal form A of TBN in various tissues was investigated.

[3] = pharmacokinetic study in the cerebrospinal fluid of cynomolgus monkey; type: in vivo; settings: plasma, iv, 30 mg/kg, 10 min after the second administration, 30 mg/kg i.v., read-out: concentration of the drug in plasma
[4] = as above; type: in vivo
Description: The pharmacodynamic study in cynomolgus monkey animal model of cerebral stroke and also the pharmacokinetic study of the crystal form A of TBN in the cerebrospinal fluid of cynomolgus monkey were carried out. 10 min, 30 min, 60 min, and 120 min after the second administration (30 mg/kg, 6 hrs after the first intravenous administration of 30 mg/kg), 0.5 ml of cerebrospinal fluid was collected for pharmacokinetic test.

Solubility in solvents = type: physicochemical
[5] = Test of influence of acceleration; type: physicochemical
[6] = Test of stability against cold/heat treatment; type: physicochemical
Description: (4) The crystal form A was cooled to −55° C., and then heated to 25° C.
(5) The crystal form A was heated to 110° C. (before the decomposition point), and then cooled to 25° C. to obtain a yellow oily liquid.
(6) The TBN dihydrate was heated to 110° C. (before the decomposition point), and then cooled to 25° C. to obtain a yellow oily liquid.

[7] = Polymorph transformation test of suspension; type: physicochemical; settings: petroleum ether, room temperature, 7 days
Description: (1) The crystal form A of TBN was beaten in petroleum ether (1.0 mL) at room temperature for 7 days, and then the suspension was centrifuged, and the solid sample was collected for characterization by XRPD.

Tableting test = type: physicochemical; settings: 2 tons for 2 min
Description: (3) The crystal form A and the TBN dihydrate were tableted under a pressure of 2 tons for 2 min. The tablets thus obtained were analyzed by XRPD.

[8] = Test of stability against mechanical treatment (grinding); type: physicochemical; settings: ground for 10 min
Description: (2) The crystal form A of TBN and the TBN dihydrate were ground for 10 min receptively, and the treated samples were analyzed by XRPD.

Cc1nc(C)c(/C=[N+](\[O-])C(C)(C)C)nc1C [TBN, (Z)-2-methyl-N-((3,5,6-trimethylpyrazin-2-yl)methylene)propan-2-amine oxide]
effective protection concentration [1]: 30 µM | accumulation in the detected tissues [2]: does not tend to accumulate | time to clearance from the tissues and plasma [2]: ≤ 24 h | concentration in the brain tissue relative to plasma concentration ([2]; 0.25 hrs after administration): 0.6-0.7 time the plasma concentration | concentration in the brain tissue relative to plasma concentration ([2]; after 4 hrs): 0.8-1.1 times the plasma concentration | clearance from brain tissue ([2]; at 24 hrs): completely cleared | tissue distribution ([2]; female and male): rapid and widespread distribution | concentration at 10 min [3]: 195 µM | Drug concentration in cerebrospinal fluid ([4]; 10 min after second intravenous 30 mg/kg dose, individual animals, 30 mg/kg): 33700 ng/mL and 34300 ng/mL | Drug concentration in cerebrospinal fluid ([4]; 30 min after second intravenous 30 mg/kg dose, individual animals, 30 mg/kg): 32200 ng/mL and 25100 ng/mL | Drug concentration in cerebrospinal fluid ([4]; 60 min after second intravenous 30 mg/kg dose, individual animals, 30 mg/kg): 25300 ng/mL and 20000 ng/mL | Drug concentration in cerebrospinal fluid ([4]; 120 min after second intravenous 30 mg/kg dose, individual animals, 30 mg/kg): 16500 ng/mL and 14300 ng/mL and 7800 ng/mL | concentration at 10 min ([4]; cerebrospinal fluid, iv, 30 mg/kg, 10 min after second intravenous 30 mg/kg dose, individual animals, read-out: Drug concentration in cerebrospinal fluid): 48800 ng/mL | concentration at 10 min ([4]; cerebrospinal fluid, iv, 30 mg/kg, 10 min after the second administration, 30 mg/kg i.v., read-out: concentration of TBN in the cerebrospinal fluid): 176 µM | concentration at 30 min ([4]; cerebrospinal fluid, iv, 30 mg/kg, 30 min after second intravenous 30 mg/kg dose, individual animals, read-out: Drug concentration in cerebrospinal fluid): 41100 ng/mL | concentration at 60 min ([4]; cerebrospinal fluid, iv, 30 mg/kg, 60 min after second intravenous 30 mg/kg dose, individual animals, read-out: Drug concentration in cerebrospinal fluid): 27500 ng/mL

Cc1nc(C)c(/C=[N+](\[O-])C(C)(C)C)nc1C [crystal form A of TBN, (Z)-2-methyl-N-((3,5,6-trimethylpyrazin-2-yl)methylene)propan-2-amine oxide]
solubility (Solubility in solvents; most solvents (acetonitrile, methanol, ethanol, acetone, ethyl acetate)): readily soluble | solubility (Solubility in solvents; water): very soluble | crystal form by XRPD after acceleration ([5]; 7 days at 40° C. and RH=75%): shows crystal form A | stability in heat treatment, mechanical treatment and acceleration ([5]; acceleration (50° C., 75% RH)): stable | polymorph transformation after cooling treatment ([6]; cooled to −55° C., then heated to 25° C.): does not undergo polymorph transformation | crystal form by XRPD after thermal treatment ([6]; heated to 110° C., cooled to 25° C., solid precipitated after stirring): characterized by XRPD as crystal form A | crystal form by XRPD after suspension beating [7]: still crystal form A | polymorph transformation after tableting (XRPD) (Tableting test): do not undergo polymorph transformation | blood-brain barrier penetration ([4]; 30 mg/kg i.v.): penetrate through the blood-brain barrier | crystal form (XRPD) after grinding [8]: no change
